PMC12352620, “Fragment-based discovery of dual ligand pharmacophores for lipid-sensing transcription factors for designed polypharmacology” (RSC Medicinal Chemistry, 2025)

Legend:
Assay type in all cases: cell-based
THRα = target: T1, THRα (Homo sapiens, UniProt P10827); assay: Gal4-hybrid reporter gene assay THRα; details: mean ± S.E.M., n ≥ 3; for EC50 / EC50 THRα: HEK293T, Gal4-hybrid reporter, Inactive = tested 1–300 μM; for max. fold activation THRα: maximum reporter activation vs DMSO (0.1%) treated cells
T1 construct: expressed in transfected cells; host or cells: HEK293T
T1 sequence (P10827 128-410 isoform P10827-2 limits assumed): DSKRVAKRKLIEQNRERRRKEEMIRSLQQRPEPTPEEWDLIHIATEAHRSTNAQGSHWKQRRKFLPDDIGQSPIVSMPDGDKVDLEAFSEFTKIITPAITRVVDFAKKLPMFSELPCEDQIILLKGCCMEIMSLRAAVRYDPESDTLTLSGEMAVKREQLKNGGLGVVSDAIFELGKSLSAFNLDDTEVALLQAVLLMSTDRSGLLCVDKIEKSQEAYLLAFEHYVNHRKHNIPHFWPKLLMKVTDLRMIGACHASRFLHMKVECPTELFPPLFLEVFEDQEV
Experimental: (§1) NR modulation was determined as described previously[45] in Gal4 hybrid reporter gene assays in HEK293T cells (German Collection of Microorganisms and Cell Culture GmbH, DSMZ) using pFR-Luc (Stratagene, La Jolla, CA, USA; reporter), pRL-SV40 (Promega, Madison, WI, USA; internal control) and the hybrid receptor clones pFA-CMV-hTHRα-LBD,[46] pFA-CMV-hPPARγ-LBD,[47] pFA-CMV-hFXR-LBD,[48] and pFA-CMV-hRXRα-LBD,[49] coding for the hinge region and ligand binding domain of the canonical isoform of the respective NR. Cells were cultured in Dulbecco's modified Eagle's medium (DMEM), high glucose supplemented with 10% fetal calf serum (FCS), sodium pyruvate (1 mM), penicillin (100 U mL^−1), and streptomycin (100 μg mL^−1) at 37 °C and 5% CO2 and seeded in 96-well plates (3 × 10^4 cells per well). After 24 h, medium was changed to Opti-MEM without supplements and cells were transiently transfected using Lipofectamine LTX reagent (Invitrogen, Carlsbad, CA, USA) according to the manufacturer's protocol. Five hours after transfection, cells were incubated with the test compounds in Opti-MEM supplemented with penicillin (100 U mL^−1), streptomycin (100 μg mL^−1) and 0.1% DMSO for 16 h before luciferase activity was measured using the Dual-Glo Luciferase Assay System (Promega) according to the manufacturer's protocol on a Tecan Spark luminometer (Tecan Deutschland GmbH, Crailsheim, Germany). Firefly luminescence was divided by Renilla luminescence and multiplied by 1000 resulting in relative light units (RLU) to normalize for transfection efficiency and cell growth. Fold activation was obtained by dividing the mean RLU of test compound by the mean RLU of the untreated control. All samples were tested in at least three biologically independent experiments in duplicates. For dose–response curve fitting and calculation of EC50 values, the equation “[agonist] vs. response − variable slope (four parameters)” was used in GraphPad Prism (version 7.00, GraphPad Software, La Jolla, CA, USA). For selectivity profiling, the hybrid reporter gene assay was performed with Gal4 fusion receptor plasmids for RARα, PPARα, PPARδ, VDR, CAR and LXRα. The following reference agonists were used: triiodothyronine (1 μM, THR), all-trans retinoic acid (1 μM, RAR), GW7647 (1 μM, PPARα), pioglitazone (1 μM, PPARγ), L165041 (1 μM, PPARδ), calcitriol (1 μM, VDR), CITCO (1 μM, CAR), T0901317 (1 μM, LXR), GW4064 (1 μM, FXR), bexarotene (1 μM, RXR).

PPARγ = target: T2, PPARγ (Homo sapiens, UniProt P37231); assay: Gal4-hybrid reporter gene assay PPARγ; details: mean ± S.E.M., n ≥ 3; for EC50: HEK293T, Gal4-hybrid reporter, Inactive = tested 1–300 μM; for max. fold activation PPARγ: maximum reporter activation vs DMSO (0.1%) treated cells
T2 construct: expressed in transfected cells; host or cells: HEK293T
T2 sequence (P37231 238-503 limits assumed): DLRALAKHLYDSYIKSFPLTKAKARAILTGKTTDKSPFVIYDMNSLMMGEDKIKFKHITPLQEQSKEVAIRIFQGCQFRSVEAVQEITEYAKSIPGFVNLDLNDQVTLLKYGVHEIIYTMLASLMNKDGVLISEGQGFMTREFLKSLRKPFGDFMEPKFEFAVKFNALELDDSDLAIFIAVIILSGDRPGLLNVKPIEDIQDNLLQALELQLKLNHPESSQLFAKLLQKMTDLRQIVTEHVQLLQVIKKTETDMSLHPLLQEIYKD
Experimental: as §1

FXR = target: T3, FXR (Homo sapiens, UniProt Q96RI1); assay: Gal4-hybrid reporter gene assay FXR; details: mean ± S.E.M., n ≥ 3; for EC50 / EC50 FXR: HEK293T, Gal4-hybrid reporter, Inactive = tested 1–300 μM; for max. fold activation FXR: maximum reporter activation vs DMSO (0.1%) treated cells
T3 construct: expressed in transfected cells; host or cells: HEK293T
T3 sequence (Q96RI1 262-486 limits assumed): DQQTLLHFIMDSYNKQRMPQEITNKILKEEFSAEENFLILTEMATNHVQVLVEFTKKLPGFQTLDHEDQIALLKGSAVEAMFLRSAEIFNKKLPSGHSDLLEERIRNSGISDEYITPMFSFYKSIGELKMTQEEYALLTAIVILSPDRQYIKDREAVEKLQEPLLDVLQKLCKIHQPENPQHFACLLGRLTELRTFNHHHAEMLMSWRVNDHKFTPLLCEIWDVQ
Experimental: as §1

RXRα = target: T4, RXRα (Homo sapiens, UniProt P19793); assay: Gal4-hybrid reporter gene assay RXRα; details: mean ± S.E.M., n ≥ 3; for EC50 / EC50 RXRα: HEK293T, Gal4-hybrid reporter, Inactive = tested 1–300 μM; for max. fold activation RXRα: maximum reporter activation vs DMSO (0.1%) treated cells
T4 construct: expressed in transfected cells; host or cells: HEK293T
T4 sequence (P19793 227-458 limits assumed): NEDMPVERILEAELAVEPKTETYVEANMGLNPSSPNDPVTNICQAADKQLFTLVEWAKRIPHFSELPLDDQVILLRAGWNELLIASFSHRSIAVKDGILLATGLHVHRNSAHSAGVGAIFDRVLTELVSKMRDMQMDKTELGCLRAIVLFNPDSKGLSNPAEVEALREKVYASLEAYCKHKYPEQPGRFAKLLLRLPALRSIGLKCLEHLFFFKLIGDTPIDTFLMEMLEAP
Experimental: as §1

Row | EC50 (THRα) | max. fold activation THRα (THRα) | EC50 (PPARγ) | max. fold activation PPARγ (PPARγ) | EC50 (FXR) | max. fold activation FXR (FXR) | EC50 (RXRα) | max. fold activation RXRα (RXRα) | EC50 THRα (THRα) | EC50 FXR (FXR) | EC50 RXRα (RXRα) | SMILES
1 | 27 ± 1 µM | (8.9 ± 0.5-fold) | 25.9 ± 0.4 µM | (31.2 ± 0.6-fold) | 26 ± 1 µM | (9.5 ± 0.4-fold) | 33 ± 6 µM | (8 ± 1-fold) |  |  |  | CCOc1ccc(C(=O)/C=C/C(=O)O)cc1 [2.7]
2 |  |  | 126 ± 9 µM | (6.7 ± 0.3-fold) |  |  |  |  | Inactive | Inactive | Inactive | COc1ccc(/C=C/C(=O)O)cc1 [2.12]
3 |  |  | 34 ± 7 µM | (8.2 ± 0.5-fold) |  |  |  |  | Inactive | Inactive | Inactive | O=C(O)/C=C/C(=O)c1cccc(Cl)c1 [2.16]
4 | 55 ± 19 µM | (2.6 ± 0.3-fold) | 86 ± 8 µM | (21 ± 1-fold) | 108 ± 22 µM | (3.2 ± 0.4-fold) | 55 ± 8 µM | (3.5 ± 0.1-fold) |  |  |  | COc1ccc(/C=C(/C(=O)O)C(F)(F)F)cc1 [2.19]
5 |  |  | 106 ± 5 µM | (25.0 ± 0.8-fold) |  |  | 129 ± 11 µM | (22.5 ± 1.5-fold) | Inactive | Inactive |  | O=C(O)CCCC#Cc1ccccc1 [2.27]
6 | 10 ± 3 µM | (1.7 ± 0.1-fold) | 51 ± 9 µM | (11.0 ± 0.5-fold) |  |  |  |  |  | Inactive | Inactive | O=C(O)/C=C/C(=O)c1ccc(F)cc1F [2.28]
7 |  |  | 47 ± 3 µM | (17.4 ± 0.3-fold) |  |  |  |  | Inactive | Inactive | Inactive | O=C(O)COc1ccccc1Cc1ccccc1 [2.43]
8 | 26 ± 5 µM | (2.1 ± 0.2-fold) | 32 ± 2 µM | (3.2 ± 0.2-fold) | 11 ± 2 µM | (1.7 ± 0.1-fold) | 14 ± 5 µM | (2.1 ± 0.2-fold) |  |  |  | O=C(O)c1coc(-c2cccc(Cl)c2)c1 [3.2, 5-(3-Chlorophenyl)furan-3-carboxylic acid]
9 |  |  | 62 ± 2 µM | (26 ± 2-fold) |  |  |  |  | Inactive | Inactive | Inactive | O=C(O)/C=C/C(=O)c1ccccc1 [4.1, (E)-4-Oxo-4-phenylbut-2-enoic acid]

Row | SMILES | EC50 (THRα) | max. fold activation THRα (THRα) | EC50 (PPARγ) | max. fold activation PPARγ (PPARγ) | EC50 (FXR) | max. fold activation FXR (FXR) | EC50 (RXRα) | max. fold activation RXRα (RXRα) | EC50 THRα (THRα) | EC50 FXR (FXR) | EC50 RXRα (RXRα)
10 | O=C(O)/C=C/C=C/c1ccc2c(c1)OCO2 [2.6] | 225 ± 91 µM | (5.0 ± 1.4-fold) | 137 ± 8 µM | (9.3 ± 0.5-fold) | 138 ± 44 µM | (5.2 ± 0.8-fold) | 112 ± 19 µM | (3.4 ± 0.2-fold) |  |  | 
